How the values were obtained:
Myosoton aquaticum = experiment: pot-culture method, stem and leaf treatment in greenhouse, fresh weight inhibition rate 20 days after treatment (Gowing method); format: in vivo
Description: (§1) Capsella bursa-pastoris, Myosoton aquaticum, Alopecurus japonicus were collected from corn fields in Huangdao Experimental Base of Shandong Province.
(§2) The above weeds were cultivated by a pot culture method. […] Full and uniform weed seeds were selected, soaked in warm water at 25° C. for 6 hours, and germinated in a 28° C. biochemical incubator (darkness). […] A certain amount of water was added to the enamel pan regularly to keep the soil moist.
(§3) The technical materials were all dissolved in acetone, and diluted with an aqueous solution containing 0.1% emulsifier T-80. The dilution is performed as required.
(§4) A ratio of the active ingredient A to the active ingredient B and amounts thereof in each group depends on the characteristics and toxicity of the two agents, as well as the main application purpose of a corresponding formulation. Based on the pre-tests in this study, the dosage of the active ingredient A and the active ingredient B applied alone and in combination were shown in the tables, and a total 15 groups were designed. Water containing the solvent and emulsifier same with the above groups but free of the agents was used as a blank control.
(§5) 3 pots with 20 weed seeds per pot were treated in one treatment with […] per treatment, that is, a total of 60 weeds were treated in one treatment.
(§6) The agents were used for only once in the experiment. In the stage of weeds with 2 leaves and 1 core, the weeds were thinned out to maintain 15 weeds per pot and 45 weeds for each treatment, then continued to be cultured to 3-5-leaves stage of Capsella bursa-pastoris and Myosoton aquaticum, and 3-leaves and 1-core stage of Alopecurus japonicus, and treated.
(§7) The well-cultured weeds were evenly placed on a platform with an area of 0.5 m^2, and a solution of agents was sprayed on the stems and leaves thereof by the 3WP-2000-type walking spray tower at a dosage of 30 kg/ha and at a spray pressure of 0.3 MPa. After all the solution was sprayed, the valve was closed. After 30 seconds, the door of the spray tower was opened, and the nutritional bowl was taken out. Then the valve was opened, and the spray tube was cleaned by spraying 50 ml of water.
(§8) A pot-culture method was employed. For the cultivation of weeds, please refer to the Section 1.2, and “Pesticide guidelines for laboratory bioactivity tests—herbicides”. As to a method for applying agents, please refer to the section 2.3.2, that is, a method for treating stems and leaves was employed.
(§9) A method for investigating absolute number was employed, wherein whole seedlings of survival weeds were cut off with a blade along the soil surface, and the fresh weight of the weeds was weighed with an analytical balance. For dead weeds, the fresh weight thereof was zero.
(§10) The investigation was performed after 20 days of the treatment for only once.
(§11) Wherein, in the formula, X represented the fresh weight inhibition rate of the active ingredient A in a dosage of P, and Y represented the fresh weight inhibition rate of the active ingredient B in a dosage of Q.

Capsella bursa-pastoris = experiment: as above; format: in vivo
Description: as §1, §2, §3, §4, §5, §6, §7, §8, §9, §10, §11

Which “actual fresh weight inhibition rate” value (Myosoton aquaticum; Myosoton aquaticum, 40 g/hm^2) does the source give for O=C(Nc1ccc(F)cc1)c1cccc(Oc2cccc(C(F)(F)F)c2)n1 [picolinafen] here?
The value was 14.5%.

And the “actual fresh weight inhibition rate” value (Myosoton aquaticum; Myosoton aquaticum, 80 g/hm^2)?
Its value is 34.9%.

What about the “actual fresh weight inhibition rate” value (Myosoton aquaticum; Myosoton aquaticum, 120 g/hm^2) of the same molecule?
The value was 50.5%.

And the “actual fresh weight inhibition rate” value (Capsella bursa-pastoris; Capsella bursa-pastoris, 40 g/hm^2)?
The value was 16.4%.

And the “actual fresh weight inhibition rate” value (Capsella bursa-pastoris; Capsella bursa-pastoris, 80 g/hm^2)?
The value was 33.2%.

What about the “actual fresh weight inhibition rate” value (Capsella bursa-pastoris; Capsella bursa-pastoris, 120 g/hm^2) of the same molecule?
Its value is 55.6%.

Which results are given for O=C(O)COC(=O)c1cc(Oc2ccc(C(F)(F)F)cc2Cl)ccc1[N+](=O)[O-] [fluoroglycofen, reference compound]?
actual fresh weight inhibition rate (%) (Myosoton aquaticum; dosage 5 g/hm^2): 37.9%; actual fresh weight inhibition rate (%) (Myosoton aquaticum; dosage 10 g/hm^2): 41.8%; actual fresh weight inhibition rate (%) (Myosoton aquaticum; dosage 15 g/hm^2): 55.4%; actual fresh weight inhibition rate (%) (Capsella bursa-pastoris; dosage 5 g/hm^2): 47.4%; actual fresh weight inhibition rate (%) (Capsella bursa-pastoris; dosage 10 g/hm^2): 61.6%; actual fresh weight inhibition rate (%) (Capsella bursa-pastoris; dosage 15 g/hm^2): 70.5%

What does the source list for N#Cc1cc(Br)c(O)c(Br)c1 [Bromoxynil]?
pest or weed control at 240 g/ha (Myosoton aquaticum; Myosoton aquaticum, 480 h, dosage 240 g/hm^2, read-out: actual fresh weight inhibition rate): 30.5%; pest or weed control at 360 g/ha (Myosoton aquaticum; Myosoton aquaticum, 480 h, dosage 360 g/hm^2, read-out: actual fresh weight inhibition rate): 38.7%; pest or weed control at 480 g/ha (Myosoton aquaticum; Myosoton aquaticum, 480 h, dosage 480 g/hm^2, read-out: actual fresh weight inhibition rate): 47.9%; pest or weed control at 240 g/ha (Capsella bursa-pastoris; Capsella bursa-pastoris, 480 h, dosage 240 g/hm^2, read-out: actual fresh weight inhibition rate): 40.6%; pest or weed control at 360 g/ha (Capsella bursa-pastoris; Capsella bursa-pastoris, 480 h, dosage 360 g/hm^2, read-out: actual fresh weight inhibition rate): 58.5%; pest or weed control at 480 g/ha (Capsella bursa-pastoris; Capsella bursa-pastoris, 480 h, dosage 480 g/hm^2, read-out: actual fresh weight inhibition rate): 81.3%

How did the “actual fresh weight inhibition rate (%)” value (Myosoton aquaticum; dosage 100 g/hm^2) turn out when Nc1c(Cl)c(F)nc(OCC(=O)O)c1Cl [fluroxypyr, reference compound] was run?
The value was 90.1%.

What about the “actual fresh weight inhibition rate (%)” value (Myosoton aquaticum; dosage 150 g/hm^2) of the same molecule?
Its value is 100%.

And the “actual fresh weight inhibition rate (%)” value (Myosoton aquaticum; dosage 200 g/hm^2)?
Its value is 100%.

And the “actual fresh weight inhibition rate (%)” value (Capsella bursa-pastoris; dosage 100 g/hm^2)?
Its value is 10.1%.

And the “actual fresh weight inhibition rate (%)” value (Capsella bursa-pastoris; dosage 150 g/hm^2)?
Its value is 18.3%.

And the “actual fresh weight inhibition rate (%)” value (Capsella bursa-pastoris; dosage 200 g/hm^2)?
The value was 28.7%.

Which “actual fresh weight inhibition rate (%)” value (Myosoton aquaticum; dosage 300 g/hm^2) does the source give for Cc1cc(Cl)ccc1OCC(=O)O [MCPA, 2-methyl-4-chlorophenoxy acetic acid, reference compound] here?
Its value is 23.8%.

And the “actual fresh weight inhibition rate (%)” value (Myosoton aquaticum; dosage 600 g/hm^2)?
The value was 35.6%.

What about the “actual fresh weight inhibition rate (%)” value (Myosoton aquaticum; dosage 900 g/hm^2) of the same molecule?
Its value is 45.8%.

And the “actual fresh weight inhibition rate (%)” value (Capsella bursa-pastoris; dosage 300 g/hm^2)?
The value was 33.2%.

What about the “actual fresh weight inhibition rate (%)” value (Capsella bursa-pastoris; dosage 600 g/hm^2) of the same molecule?
Its value is 41.7%.

And the “actual fresh weight inhibition rate (%)” value (Capsella bursa-pastoris; dosage 900 g/hm^2)?
Its value is 60.5%.

What does the source list for CC(C)N1C(=O)c2ccccc2NS1(=O)=O [bentazon]?
pest or weed control at 500 g/ha (Myosoton aquaticum; Myosoton aquaticum, 480 h, Myosoton aquaticum, 500 g/hm^2, read-out: actual fresh weight inhibition rate): 33.4%; pest or weed control at 750 g/ha (Myosoton aquaticum; Myosoton aquaticum, 480 h, Myosoton aquaticum, 750 g/hm^2, read-out: actual fresh weight inhibition rate): 46.2%; pest or weed control at 1000 g/ha (Myosoton aquaticum; Myosoton aquaticum, 480 h, Myosoton aquaticum, 1000 g/hm^2, read-out: actual fresh weight inhibition rate): 58.7%; pest or weed control at 500 g/ha (Capsella bursa-pastoris; 480 h, Capsella bursa-pastoris, 500 g/hm^2, read-out: actual fresh weight inhibition rate): 38.5%; pest or weed control at 750 g/ha (Capsella bursa-pastoris; 480 h, Capsella bursa-pastoris, 750 g/hm^2, read-out: actual fresh weight inhibition rate): 58.2%; pest or weed control at 1000 g/ha (Capsella bursa-pastoris; 480 h, Capsella bursa-pastoris, 1000 g/hm^2, read-out: actual fresh weight inhibition rate): 73.1%

CCNc1nc(NC(C)(C)C)nc(SC)n1 [terbutryn] was tested. Which pest or weed control at 125 g/ha (Myosoton aquaticum; Myosoton aquaticum, 480 h, Myosoton aquaticum, 125 g/hm^2, read-out: actual fresh weight inhibition rate) did it give?
Its pest or weed control at 125 g/ha is 13.4%.

What about the pest or weed control at 275 g/ha (Myosoton aquaticum; Myosoton aquaticum, 480 h, Myosoton aquaticum, 275 g/hm^2, read-out: actual fresh weight inhibition rate) of the same molecule?
Its pest or weed control at 275 g/ha is 29.3%.

What about the pest or weed control at 425 g/ha (Myosoton aquaticum; Myosoton aquaticum, 480 h, Myosoton aquaticum, 425 g/hm^2, read-out: actual fresh weight inhibition rate) of the same molecule?
Its pest or weed control at 425 g/ha is 33.9%.

And the pest or weed control at 125 g/ha (Capsella bursa-pastoris; 480 h, Capsella bursa-pastoris, 125 g/hm^2, read-out: actual fresh weight inhibition rate)?
Its pest or weed control at 125 g/ha is 15.4%.

And the pest or weed control at 275 g/ha (Capsella bursa-pastoris; 480 h, Capsella bursa-pastoris, 275 g/hm^2, read-out: actual fresh weight inhibition rate)?
Its pest or weed control at 275 g/ha is 25.3%.

What about the pest or weed control at 425 g/ha (Capsella bursa-pastoris; 480 h, Capsella bursa-pastoris, 425 g/hm^2, read-out: actual fresh weight inhibition rate) of the same molecule?
The pest or weed control at 425 g/ha was 40.9%.

For O=C(Nc1ccc(F)cc1F)c1cccnc1Oc1cccc(C(F)(F)F)c1 [diflufenican], which pest or weed control at 40 g/ha (Myosoton aquaticum; Myosoton aquaticum, 480 h, Myosoton aquaticum, 40 g/hm^2, read-out: actual fresh weight inhibition rate) is on record?
Its pest or weed control at 40 g/ha is 24.1%.

And the pest or weed control at 80 g/ha (Myosoton aquaticum; Myosoton aquaticum, 480 h, Myosoton aquaticum, 80 g/hm^2, read-out: actual fresh weight inhibition rate)?
Its pest or weed control at 80 g/ha is 46.2%.

What about the pest or weed control at 120 g/ha (Myosoton aquaticum; Myosoton aquaticum, 480 h, Myosoton aquaticum, 120 g/hm^2, read-out: actual fresh weight inhibition rate) of the same molecule?
The pest or weed control at 120 g/ha was 66.5%.

What about the pest or weed control at 40 g/ha (Capsella bursa-pastoris; 480 h, Capsella bursa-pastoris, 40 g/hm^2, read-out: actual fresh weight inhibition rate) of the same molecule?
The pest or weed control at 40 g/ha was 33.1%.

What about the pest or weed control at 80 g/ha (Capsella bursa-pastoris; 480 h, Capsella bursa-pastoris, 80 g/hm^2, read-out: actual fresh weight inhibition rate) of the same molecule?
Its pest or weed control at 80 g/ha is 48.2%.

And the pest or weed control at 120 g/ha (Capsella bursa-pastoris; 480 h, Capsella bursa-pastoris, 120 g/hm^2, read-out: actual fresh weight inhibition rate)?
The pest or weed control at 120 g/ha was 63.4%.

Reference: patent US10506810B2, “Synergistic herbicidal composition” (QINGDAO KINGAGROOT RESISTANT WEED MANAGEMENT CO., LTD., priority 2015, dated 2019)
